Data published in US7598293B2, “Compounds and their use in medicine, process for their preparation and pharmaceutical compositions containing them” (Dr. Reddy's Laboratories, Inc., priority 2001, dated 2009).

How the values were obtained:
[1] = tested on: Swiss albino mice; assay: Plasma triglyceride and total cholesterol lowering activity in Swiss albino mice; format: in vivo, mouse; details: results after 6 days
Protocol: c) Plasma triglyceride and total cholesterol lowering activity in Swiss albino mice Male Swiss albino mice (SAM) were obtained from NIN and housed in DRF animal house. All these animals are maintained under 12 hour light and dark cycle at 25±1° C. Animals are given standard laboratory chow (NIN, Hyderabad, India) and water, ad libitum. SAM of 20-25 g body weight range and Guinea pigs of 500-700 g body weight range are used (Oliver, P., Plancke, M. O., Marzin, D., Clavey, V., Sauzieres, J and Fruchart, J. C. Effects of fenofibrate, gemfibrozil and nicotinic acid on plasma lipoprotein levels in normal and hyperlipidemic mice. Atherosclerosis. 1988. 70: 107-114).
The test compounds can be administered orally to Swiss albino mice at 0.3 to 30 mg/kg/day dose for 6 days. Control mice are treated with vehicle (0.25% Carboxymethylcellulose; dose 10 ml/kg). The test compounds are administered orally to Guinea pigs at 0.3 to 30 mg/kg/day dose for 6 days. Control animals are treated with vehicle (0.25% Carboxymethylcellulose; dose 5 ml/kg). The blood samples can bc collected in fed state 1 hour after drug administration on 0 and 6 day of treatment. The blood can be collected from the retro-orbital sinus through heparinised capillary in EDTA containing tubes. After centrifugation, plasma sample was separated for triglyceride (Wieland, O. Methods of Enzymatic analysis. Bergermeyer, H. O., Ed., 1963. 211-214; Trinder, P. Ann. Clin. Biochem. 1969. 6: 24-27). Measurement of plasma triglyceride is done using commercial kits (Dr. Reddy's Diagnostic Division, Hyderabad, India).
(§1) 1. Percent reduction in Blood sugar/triglycerides/total cholesterol will be calculated according to the formula:
(§2) [formula] • OC=Zero day control group value • OT=Zero day treated group value • TC=Test day control group value • TT=Test day treated group value

[2] = tested on: cholesterol fed Syrian Hamsters; assay: Body weight reducing effect in cholesterol fed hamsters; format: in vivo, hamster; details: 3 mg/kg oral
Protocol: d) Body weight reducing effect in cholesterol fed hamsters: Male Syrian Hamsters are procured from NIN, Hyderabad, India. Animals are housed at DRF animal house under 12 hour light and dark cycle at 25±1° C. with free access to food and water. Animals are maintained with 1% cholesterol containing standard laboratory chow (NIN) from the day of treatment.
The test compounds can be administered orally at 1 to 30 mg/kg/day dose for 15 days. Control group animals are treated with vehicle (Mill Q water, dose 10 ml/kg/day). Body weights are measured on every 3rd day.
as §1, §2

[3] = tested on: C57BL/KsJ-db/db mice; assay: Efficacy in genetic models: blood sugar and triglyceride lowering in db/db mice; format: in vivo, mouse; details: 3 mg/kg oral, results after 6 days
Text: a) Efficacy in Genetic Models Mutation in colonies of laboratory animals and different sensitivities to dietary regimens has made the development of animal models with non-insulin dependent diabetes and hyperlipidemia associated with obesity and insulin resistance possible. Genetic models such as db/db and ob/ob (Diabetes, (1982) 31(1): 1-6) mice and zucker fa/fa rats have been developed by the various laboratories for understanding the pathophysiology of disease and testing the efficacy of new antidiabetic compounds (Diabetes, (1983) 32: 830-838; Annu. Rep. Sankyo Res. Lab. (1994). 46: 1-57). The homozygous animals, C57 BL/KsJ-db/db mice developed by Jackson Laboratory, US, are obese, hyperglycemic, hyperinsulinemic and insulin resistant (J. Clin. Invest., (1990) 85: 962-967), whereas heterozygous are lean and normoglycemic. In db/db model, mouse progressively develops insulinopenia with age, a feature commonly observed in late stages of human type II diabetes when blood sugar levels are insufficiently controlled. The state of pancreas and its course vary according to the models. Since this model resembles that of type II diabetes mellitus, the compounds of the present invention will be tested for blood sugar and triglycerides lowering activities.
Male C57BL/KsJ-db/db mice of 8 to 14 weeks age, having body weight range of 35 to 60 grams, bred at Dr. Reddy's Research Foundation (DRF) animal house, were used in the experiment. The mice are provided with standard feed (National Institute of Nutrition (NIN), Hyderabad, India) and acidified water, ad libitum. The animals having more than 350 mg/dl blood sugar will be used for testing. The number of animals in each group will be 4.
Test compounds are suspended on 0.25% carboxymethyl cellulose and administered to test group at a dose of 0.1 mg to 30 mg/kg through oral gavage daily for 6 days. The control group receives vehicle (dose 10 ml/kg). On 6th day the blood samples will be collected one hour after administration of test compounds/vehicle for assessing the biological activity.
The random blood sugar and triglyceride levels can be measured by collecting blood (100 μl) through orbital sinus, using heparinised capillary in tubes containing EDTA which was centrifuged to obtain plasma. The plasma glucose and triglyceride levels can be measured spectrometrically, by glucose oxidase and glycerol-3-PO4 oxidase/peroxidase enzyme (Dr. Reddy's Lab. Diagnostic Division Kits, Hyderabad, India) methods respectively.
The blood sugar and triglycerides lowering activities of the test compound are calculated according to the formula.
as §1, §2

## CCOC(Cc1ccc(NCCCc2ccc(OS(=O)(=O)c3ccc(C)cc3)cc2)cc1)C(=O)O (centres unmarked) [Example 19, 2-ethoxy-3-[4-{3-(4-(toluene-4-sulfonyloxy)phenyl)propylamino}phenyl]propionate]
[1]; 1 mg/kg oral
  Triglyceride Lowering (%): 39%

## 2-Ethoxy-3-[4-(4-methanesulfonyloxybenzylamino)phenyl]propionic acid arginine salt [Example 38]
[1]; 1 mg/kg oral
  Triglyceride Lowering (%): 41%

## CCOC(Cc1ccc(NCCCc2ccc(N(C(=O)OC(C)(C)C)S(C)(=O)=O)cc2)cc1)C(=O)O (centres unmarked) [Example 30]
[1]; 3 mg/kg oral
  Triglyceride Lowering (%): 41%

## CCOC(Cc1ccc(NC(=O)OCCCc2ccc(OS(C)(=O)=O)cc2)cc1)C(=O)O (centres unmarked) [Example 16, 2-Ethoxy-3-[4-{3-(4-methanesulfonyloxyphenyl)propyloxycarbonylamino}phenyl]propionic acid]
[2]
  Reduction in Body weight (%): 19%
  Reduction in Total Cholesterol (%): 63%
  Reduction in Triglyceride (%): 77%
[3]
  Reduction in Blood Glucose Level (%): 15%
  Triglyceride Lowering (%): 39%
